Source: patent publication US20120226031A1, “PALMARUMYCIN BASED INHIBITORS OF THIOREDOXIN AND METHODS OF USING SAME” (ARIZONA BOARD OF REGENTS, ACTING ON BEHALF OF THE …, priority 2005, published 2012)
Converted amounts (≈) assume the structure as drawn. Like-named read-outs stand apart in the source and are kept apart here.

How the values were obtained:
[1] = Toxicity in female scid mice; type: in vivo, mouse
VEGF = test: Tumor VEGF immunohistochemistry in MCF-7 xenografts; type: in vivo, mouse; details: five daily doses of 25 mg/kg, 24 hours after last dose
Protocol: FIG. 5. Inhibition of tumor HIF-1α, VEGF and thioredoxin reductase by repeated administration of PX-916. Female scid mice were implanted 1d previously with a 90-d 17β-estradiol slow release pellet were inoculated s.c. with 10^7 MCF-7 human breast cancer cells. When the tumors were 300 mm^3, vehicle or 25 mg/kg/d PX-916 was given i.v. for five doses. Twenty four hours later, the tumors were removed and stained by immunohistochemistry for HIF-1α and VEGF (A) or assayed for thioredoxin reductase activity (B). Columns mean of four mice, SE. P≦0.05.
Levels of the HIF-1α transcription factor and its downstream target VEGF are increased by thioredoxin-1 expression. We examined the effect of PX-916 administration on tumor HIF-1α and VEGF levels (FIG. 5A). Twenty-four hours after the last dose of five daily doses of PX-916 of 25 mg/kg, there was a decrease in MCF-7 xenograft staining for both HIF-1α and VEGF. At the same time, levels of tumor thioredoxin reductase activity were decreased by 75% (FIG. 5B).

[2] = pH dependent stability in water / 0.1M sodium phosphate buffer; type: physicochemical
Protocol: (§1) PX-916 was stable as a stock solution in ethanol at room temperature with a half life of >5 days. […] Therefore, for in vitro studies PX-916 was used as a stock solution in ethanol, and for in vivo studies made fresh in pH 4.0 buffer vehicle.
Further palmarumycin analogs were synthesized and tested. The following analogs were synthesized: eee269-II, eee86-III, eee263-II and eee273-II. The stability of the analogs was measured in various solutions.

[3] = Plasma levels in mice after i.v. administration; type: in vivo, mouse; parameters: dose or concentration left out as unconfirmed; details: PX-916 i.v. to mice, 5 minutes after administration
Protocol: Two metabolite peaks could be seen at 5 minutes, but were undetectable by 30 minutes.

[4] = molecular target: T1, human thioredoxin reductase (Homo sapiens, UniProt Q16881); test: Inhibition of purified human thioredoxin reductase (TrxR/TR); type: biochemical
T1 construct: (placenta); from tissue; host or cells: human placenta
T1 sequence (Q16881 151-649 limits assumed): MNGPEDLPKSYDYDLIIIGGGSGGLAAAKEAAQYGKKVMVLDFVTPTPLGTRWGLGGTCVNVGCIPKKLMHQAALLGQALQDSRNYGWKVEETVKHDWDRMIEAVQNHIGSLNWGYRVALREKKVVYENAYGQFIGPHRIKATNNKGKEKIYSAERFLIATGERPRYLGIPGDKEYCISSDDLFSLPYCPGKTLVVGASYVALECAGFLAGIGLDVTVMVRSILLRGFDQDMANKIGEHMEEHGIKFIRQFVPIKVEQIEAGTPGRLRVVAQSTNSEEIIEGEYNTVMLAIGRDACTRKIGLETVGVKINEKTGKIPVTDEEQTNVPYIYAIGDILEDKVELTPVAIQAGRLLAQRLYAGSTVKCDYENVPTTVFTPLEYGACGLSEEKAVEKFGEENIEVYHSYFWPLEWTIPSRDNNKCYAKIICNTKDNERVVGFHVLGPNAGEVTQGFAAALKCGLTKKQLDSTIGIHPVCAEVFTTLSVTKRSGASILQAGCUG

Aqueous solubility = type: physicochemical
[5] = Stability in ethanol at room temperature; type: physicochemical
From the text: as §1

[6] = 25 mg/kg i.v. x5, 24 hr after last dose
[7] = 25 mg/kg iv QD × 5, 24 hr after last dose, mean ± SE

NCC(=O)Oc1ccc2c3c(cccc13)OC1(C=CC(=O)c3c(O)cccc31)O2 (centres unmarked) [PX-916, O-glycyl naphthoquinone spiroketal]
major toxicities observed [1, 6]: neutropenia and thrombocytopenia
plasma liver enzymes [1, 6]: no observable increase
weight loss [1, 6]: no significant weight loss
ALT [1, 7]: 39.8 ± 12.8 U/I
AST [1, 7]: 166.9 ± 29.8 U/I
Hb [1, 7]: 14.9 ± 0.4 g/dL
LY [1, 7]: 0.3 ± 0.1 K/μl
MO [1, 7]: 005 ± 0.01 K/μl
NE [1, 7]: 0.9 ± 0.3 K/μl
PLT [1, 7]: 436 ± 142 K/μl
RBC [1, 7]: 8.9 ± 0.4 M/μl
WB [1, 7]: 1.3 ± 0.6 K/μl
Δbodywt [1, 7]: -0.6 ± 0.3 g
tolerability ([1]; 5 daily doses of 25 mg/kg i.v., female scid mice): tolerated
lethality ([1]; single i.v. dose of 50 mg/kg, female scid mice): lethal
MCF-7 xenograft staining for VEGF (VEGF): decrease
half-life ([2]; 0.1M sodium phosphate buffer, pH 4.0, read-out: half life (converted)): 37 h
half-life ([2]; 0.1M sodium phosphate buffer, pH 7.0, read-out: half life (converted)): 1 h
half-life ([2]; 0.1M sodium phosphate buffer, pH 10.0, read-out: half life (converted)): < 1 h
half life of conversion to PX-960 ([2]; physiological pH): 1 h
half-life ([2]; water, pH 4, room temperature, pH4, read-out: t1/2 in water (converted)): 37 h
half-life ([2]; water, pH 7 and above, read-out: t1/2 in water (converted)): < 1 h
detection of PX-916 in plasma [3]: could not be detected
IC50 ([4]; Table 1, read-out: TrxR inhibitory activity IC50): 280 nM
IC50 ([4]; Table 2, read-out: Inhibition of human thioredoxin reductase IC50): 280 nM
IC50 ([4]; Table 3, read-out: Inhibition IC50, thioredoxin reductase (placenta)): 280 nM
mode of inhibition of thioredoxin reductase-1 ([4]; in words): NADPH and time dependent, apparently, irreversible inhibitor
IC50 ([4]; read-out: IC50 purified TrxR): 280 nM
IC50 ([4]; read-out: IC50 purified human TR): 280 nM
apparent maximum solubility in water (Aqueous solubility): around 10 mg
improvement of aqueous solubility vs PX-960 (Aqueous solubility): 1-2 orders of magnitude
solubility (Aqueous solubility; 20% β-cyclodextrin, aqueous with cosolvent or surfactant or cyclodextrin, read-out: solubility with 20% β-cyclodextrin): 2000 µg/mL (≈ 5.14 mM)
solubility (Aqueous solubility; water, read-out: water solubility): 700 µg/mL (≈ 1.8 mM)
half life of stock solution in ethanol ([5]; b145): > 120 h
half-life ([5]; ethanol, b120, read-out: half-life for conversion to PX-960 in ethanol): > 120 h
